Here are results for 9 molecules from ChEMBL document CHEMBL1136187, “Quaternary ammonium 3-(aminoethoxy)pyridines as antinociceptive agents” (Bioorg Med Chem Lett, 2003).

In assay [1] the test system is Mus musculus. Put plainly: Antinociceptive response as maximal possible effect upon intrathecal administration in mouse at the dose of 20 mg/kg. It counts as functional.
Assay [2] has as its target Neuronal acetylcholine receptor. Put plainly: Binding affinity towards nicotinic acetylcholine receptor (nACh) using [3H](-)-nicotine as radioligand in rat brain. The class given is tissue-based.
For assay [3], the system named is Mus musculus. Put plainly: Antinociceptive response as maximal possible effect upon subcutaneous administration in mice at the dose of 15 mg/kg. The class given is functional.
The test system of assay [4] is Mus musculus. The assay is described as follows: Antinociceptive response as maximal possible effect upon subcutaneous administration in mice at the dose of 10 mg/kg. It counts as functional.
The test system of assay [5] is Mus musculus. The assay is described as follows: Antinociceptive response as maximal possible effect upon intrathecal administration in mouse at the dose of 25 mg/kg. It counts as functional.
Assay [6] deals with Mus musculus. Put plainly: Antinociceptive response as maximal possible effect upon intrathecal administration in mouse at the dose of 15 mg/kg. It counts as functional.
For assay [7], the system named is Mus musculus. Put plainly: Antinociceptive effect upon subcutaneous administration in mice using tail-flick assay; 12-18. The class given is functional. As to conditions: sc. Background: Hot-plate and tail-flick tests time the reaction to a heat stimulus.
Assay [8] concerns Mus musculus. The assay is described as follows: Antinociceptive effect upon intrathecal administration in mouse using tail-flick assay; 10-19. The class given is functional.
The test system of assay [9] is Mus musculus. Put plainly: Antinociceptive response as maximal possible effect upon subcutaneous administration in mice at the dose of 20 mg/kg. It counts as functional.
Assay [10] has as its system Mus musculus. The assay is described as follows: Antinociceptive effect upon subcutaneous administration in mice using tail-flick assay; 0.9-2.2. The conditions noted are these: sc. It counts as functional.
The subject of assay [11] is Mus musculus. The assay is described as follows: Antinociceptive effect upon intrathecal administration in mouse using tail-flick assay; 16-23. The class given is functional.
The species entered for assay [12] is Mus musculus. Put plainly: animal or person. As to conditions: Tail, sc.

The term Ki denotes a measure of affinity in units of concentration, obtained from inhibition or displacement. Low readings indicate a stronger hold on the target, high ones a looser hold on the target. On to `CCC[N+](C)(C)CCOc1cccnc1.[Cl-]`, for which the MPE in [1] is on record as 3%; in assay [3], 1%. The molecule further came in with a Ki in assay [2] of 29.2 nM.

On to `COc1ccc(OCC[N+](C)(C)C)cn1`, for which the affinity in assay [2] corresponds to a Ki of 37 nM.

In the case of `CC[N+](C)(C)CCOc1ccc(Br)nc1.[I-]`, the Ki in assay [2] worked out at 5 nM. The MPE in [4] and in assay [5] was 0% in each case.

For `CC(C)[N+](C)(C)CCOc1cccnc1.[Cl-]`, the MPE came out at 2% in [1] and 3% in assay [3]. In assay [2], this molecule displayed an inhibition constant Ki of 13.8 nM.

In turn, `C[N+](C)(C)CCOc1ccc(Cl)nc1.[I-]` gave a Ki in assay [2] of 1.3 nM. Also, the MPE in assay [4] came out at 5%; in [6] it was 4%.

`CN(C)CCOc1cccnc1.O=C(O)C(=O)O` had an ED50 in [7] of 15 mg/kg.

In assay [2], `CC[N+](C)(C)CCOc1cccnc1.[Cl-]` registered a Ki of 2.2 nM. Moreover, in assay [8], the ED50 is given as 14 ug mouse-1. In assay [9], this molecule displayed an MPE of 5%.

Consider `C[N+](C)(C)CCOc1cccnc1.[Cl-]`, for which the affinity in [2] corresponds to a Ki of 0.5 nM. Further, the ED50 in assay [10] was 1.4 mg/kg; in assay [11], 19 ug mouse-1.

The molecule `CN1CCC[C@H]1c1cccnc1` [NICOTINE] showed an ED50 in assay [12] of 1.5 mg/kg.
